Measurements from ChEMBL document CHEMBL1201862, “PubChem BioAssay data set” (2004).
Active and inactive are the calls of the source.

Assays:
[1] = inhibitors of intracellular T. cruzi replication, confirmation, NIH3T3 host cells, beta-gal luminescence (AID 2044); format: functional, cell-based;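 note: intracellular parasites grown in NIH/3T3 mouse fibroblasts as host cells; luminescent beta-galactosidase reporter signal from transgenic T. cruzi replicating inside host cells; inhibitors lower the luminescence signal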
[2] = cytotoxicity toward NIH3T3 fibroblasts, dose response, counter-screen, cell-based, ATP luminescence, mouse fibroblasts (AID 2010); format: functional;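 note: cells exposed to compound for about 90 hours before reading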
[3] = cells
[4] = biological target: DNA dC->dU-editing enzyme APOBEC-3A (Homo sapiens, UniProt P31941); assay: APOBEC3A DNA deaminase inhibitors, dose response, biochemical (AID 504722); format: functional
[5] = biological target: DNA dC->dU-editing enzyme APOBEC-3G (Homo sapiens, UniProt Q9HC16); assay: Dose Response confirmation of small molecule APOBEC3G DNA Deaminase Inhibitors via a fluorescence-based single-stranded DNA deaminase assay. [Related pubchem assays (depositor defined):AID493012, AID493028]; format: functional
[6] = M. tuberculosis H37Rv growth inhibitors, H37Rv strain (AID 1626); format: functional
[7] = biological target: T1, Aminopeptidase N (Plasmodium falciparum FcB1/Columbia, UniProt O96935); assay: P. falciparum M1AAP inhibitors, biochemical, fluorogenic H-Leu-NHMec substrate, 1536-well (AID 1445); design: species or system Plasmodium falciparum 3D7, 3D7
T1 sequence (O96935 whole entry): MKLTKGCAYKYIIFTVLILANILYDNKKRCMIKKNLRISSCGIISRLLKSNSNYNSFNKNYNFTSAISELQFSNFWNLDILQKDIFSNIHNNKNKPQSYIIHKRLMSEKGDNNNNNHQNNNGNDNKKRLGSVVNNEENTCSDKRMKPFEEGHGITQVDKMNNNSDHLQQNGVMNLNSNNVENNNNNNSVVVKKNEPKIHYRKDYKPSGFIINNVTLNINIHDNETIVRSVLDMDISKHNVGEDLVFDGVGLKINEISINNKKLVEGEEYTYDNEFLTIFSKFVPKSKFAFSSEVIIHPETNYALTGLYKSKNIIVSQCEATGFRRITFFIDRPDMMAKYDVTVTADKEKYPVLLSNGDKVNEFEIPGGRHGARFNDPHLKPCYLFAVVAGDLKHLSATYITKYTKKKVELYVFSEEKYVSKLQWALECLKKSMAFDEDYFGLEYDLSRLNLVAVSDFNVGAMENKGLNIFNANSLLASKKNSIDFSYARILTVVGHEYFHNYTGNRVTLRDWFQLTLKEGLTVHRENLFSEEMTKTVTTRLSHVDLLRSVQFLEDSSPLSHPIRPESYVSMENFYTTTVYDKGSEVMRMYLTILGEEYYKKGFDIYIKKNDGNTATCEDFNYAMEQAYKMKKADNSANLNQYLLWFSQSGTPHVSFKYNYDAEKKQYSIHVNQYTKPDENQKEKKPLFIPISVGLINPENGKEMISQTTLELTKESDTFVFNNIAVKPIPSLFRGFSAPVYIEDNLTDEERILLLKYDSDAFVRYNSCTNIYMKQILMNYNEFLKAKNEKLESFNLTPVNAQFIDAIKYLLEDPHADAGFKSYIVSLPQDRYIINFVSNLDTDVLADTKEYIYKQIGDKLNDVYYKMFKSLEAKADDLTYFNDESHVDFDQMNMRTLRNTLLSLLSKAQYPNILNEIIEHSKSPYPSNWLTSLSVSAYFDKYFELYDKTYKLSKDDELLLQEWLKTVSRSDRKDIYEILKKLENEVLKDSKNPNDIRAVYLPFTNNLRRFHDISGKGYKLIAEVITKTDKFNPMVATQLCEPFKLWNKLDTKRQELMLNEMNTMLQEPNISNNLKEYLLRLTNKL

[8] = biological target: G-protein coupled receptor 55 (Homo sapiens, UniProt Q9Y2T6); assay: GPR55 agonists via beta-arrestin recruitment, primary screen, imaging, U2OS cells, beta-arrestin-GFP redistribution (AID 1961); format: functional
[9] = biological target: T2, SUMO-activating enzyme (Homo sapiens, UniProt Q9UBT2); assay: SUMOylation inhibitor hit validation, confirmation, SUMOylation inhibitor project, biochemical, AlphaScreen (AID 2018); format: functional
[10] = biological target: T2, SUMO-activating enzyme; assay: inhibitors of in vitro SUMOylation cascade, primary screen, biochemical, HTRF, uHTS (AID 2006); format: protein-complex assay
[11] = test system: Streptococcus sp. 'group A'; assay: growth inhibition of control SK(-) GAS strain, dose response, counter-screen for streptokinase expression inhibitor project, luminescence, kanamycin, BacTiterGlo, confirmation (AID 1900); format: functional, organism-based
[12] = biological target: T3, Streptokinase A (Streptococcus pyogenes serotype M1, UniProt P10520); assay: S. pyogenes streptokinase expression inhibitors, potency, dose response, plasminogen activation absorbance, OD405 (AID 1914); format: functional, Streptococcus pyogenes M1 GAS;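 note: secreted streptokinase activity via plasminogen activation per viability signal from cell pellet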
T3 sequence (P10520 whole entry): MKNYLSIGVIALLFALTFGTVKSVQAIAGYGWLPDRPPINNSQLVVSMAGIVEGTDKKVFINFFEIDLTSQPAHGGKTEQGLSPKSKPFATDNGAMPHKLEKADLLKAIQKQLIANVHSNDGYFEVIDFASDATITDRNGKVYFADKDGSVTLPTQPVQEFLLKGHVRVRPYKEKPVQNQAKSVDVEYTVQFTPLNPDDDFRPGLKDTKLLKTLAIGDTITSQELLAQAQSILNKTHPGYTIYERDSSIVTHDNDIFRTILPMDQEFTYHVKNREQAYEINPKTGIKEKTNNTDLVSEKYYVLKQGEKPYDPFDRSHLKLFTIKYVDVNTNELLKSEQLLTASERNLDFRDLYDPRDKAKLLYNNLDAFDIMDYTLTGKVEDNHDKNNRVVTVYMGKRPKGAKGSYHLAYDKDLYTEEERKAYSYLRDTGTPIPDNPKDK

[13] = test system: Streptococcus; assay: Group A Streptococcus viability loss, dose response, counter-screen for streptokinase expression inhibitor project, luminescence, BacTiterGlo (AID 1915); format: functional, organism-based;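 note: potency for reduction of bacterial viability or growth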
[14] = biological target: Beta-galactosidase (Escherichia coli, UniProt Q8VNN2); assay: beta-galactosidase enzyme inhibitors and activators, dose response, artefact control for CCR6 antagonist project, biochemical, E. coli enzyme, set 3 (AID 504712); format: functional
[15] = test system: HEK293; assay: NOD1 signaling inhibitors, primary screen, cell-based, luminescence, uHTS (AID 1578); format: functional; conditions: Homo sapiens
[16] = test system: HEK293; assay: cells; format: functional, cell-based; conditions: Homo sapiens
[17] = test system: HEK293; assay: cells; format: functional, cell-based; conditions: Homo sapiens; remark: listed apart in the source
[18] = test system: HEK293; assay: NOD2 signaling inhibitors in MDP-stimulated cells, cell-based, uHTS, luminescence (AID 2001); format: functional; conditions: Homo sapiens
[19] = biological target: T4, Replicative DNA helicase DnaB (Mycobacterium tuberculosis, UniProt P9WMR3); assay: DnaB intein splicing inhibitors, dose response, biochemical, cell-free fluorescence (AID 449749); format: functional
T4 sequence (P9WMR3 whole entry): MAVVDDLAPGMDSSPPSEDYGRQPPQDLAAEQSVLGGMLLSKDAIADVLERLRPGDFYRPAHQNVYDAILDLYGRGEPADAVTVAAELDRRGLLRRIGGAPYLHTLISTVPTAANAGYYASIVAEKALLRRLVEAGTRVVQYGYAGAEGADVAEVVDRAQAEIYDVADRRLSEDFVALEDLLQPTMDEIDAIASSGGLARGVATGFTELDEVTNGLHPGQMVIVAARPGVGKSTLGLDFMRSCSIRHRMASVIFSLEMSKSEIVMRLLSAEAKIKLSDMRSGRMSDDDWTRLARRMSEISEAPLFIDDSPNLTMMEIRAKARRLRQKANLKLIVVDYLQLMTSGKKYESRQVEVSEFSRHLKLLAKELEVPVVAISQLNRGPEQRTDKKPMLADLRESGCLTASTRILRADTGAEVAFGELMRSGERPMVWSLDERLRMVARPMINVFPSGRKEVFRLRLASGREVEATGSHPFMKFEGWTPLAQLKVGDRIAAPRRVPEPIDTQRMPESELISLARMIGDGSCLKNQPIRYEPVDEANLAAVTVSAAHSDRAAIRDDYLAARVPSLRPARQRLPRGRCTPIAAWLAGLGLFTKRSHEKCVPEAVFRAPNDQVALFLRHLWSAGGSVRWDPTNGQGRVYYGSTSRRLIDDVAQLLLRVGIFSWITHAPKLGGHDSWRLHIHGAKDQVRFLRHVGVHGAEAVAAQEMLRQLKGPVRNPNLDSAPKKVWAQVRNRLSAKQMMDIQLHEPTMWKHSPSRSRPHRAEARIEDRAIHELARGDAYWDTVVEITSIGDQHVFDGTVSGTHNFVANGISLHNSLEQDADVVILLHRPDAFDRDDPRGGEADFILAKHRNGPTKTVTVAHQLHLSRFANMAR

[20] = biological target: T5, Protein RecA (Mycobacterium tuberculosis, UniProt P9WHJ3); assay: Fluorescence Cell-Free Homogeneous Dose Retest to Identify Inhibitors of RecA-Intein Splicing Activity. [Related pubchem assays (depositor defined):AID2097, AID2223, AID489010, AID492950]; format: functional
T5 sequence (P9WHJ3 whole entry): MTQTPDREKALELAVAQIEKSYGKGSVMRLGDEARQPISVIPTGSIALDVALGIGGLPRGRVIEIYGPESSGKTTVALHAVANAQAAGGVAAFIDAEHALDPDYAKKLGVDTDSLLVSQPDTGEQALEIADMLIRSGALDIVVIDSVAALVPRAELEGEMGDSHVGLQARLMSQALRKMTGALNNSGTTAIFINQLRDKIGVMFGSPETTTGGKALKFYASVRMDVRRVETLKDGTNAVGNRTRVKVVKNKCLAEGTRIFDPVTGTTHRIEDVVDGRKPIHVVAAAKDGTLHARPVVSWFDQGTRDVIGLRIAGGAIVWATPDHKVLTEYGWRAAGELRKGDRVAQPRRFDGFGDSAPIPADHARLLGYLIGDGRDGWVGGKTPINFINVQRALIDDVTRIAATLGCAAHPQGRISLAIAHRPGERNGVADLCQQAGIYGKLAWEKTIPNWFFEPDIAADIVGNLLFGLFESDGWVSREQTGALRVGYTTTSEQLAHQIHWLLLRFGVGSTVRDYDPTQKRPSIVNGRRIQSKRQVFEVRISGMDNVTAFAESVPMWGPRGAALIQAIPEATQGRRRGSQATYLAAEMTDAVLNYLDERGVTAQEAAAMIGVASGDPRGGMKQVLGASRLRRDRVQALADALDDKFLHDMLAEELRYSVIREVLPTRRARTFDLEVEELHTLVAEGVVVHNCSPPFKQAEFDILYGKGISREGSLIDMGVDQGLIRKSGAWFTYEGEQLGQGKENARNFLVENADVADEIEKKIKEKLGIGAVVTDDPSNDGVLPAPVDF

[21] = Vero cell cytotoxicity, dose response, cytotoxicity control for Vif-APOBEC3G degradation inhibitor project, Vero cells (AID 1117358); format: functional; conditions: Human immunodeficiency virus 1, Vero
[22] = test system: H9c2; assay: cells; format: functional, cell-based; conditions: Rattus norvegicus, H9c2, Myocardium;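 note: confirmatory concentration-response retest of ultra-high-throughput screening hits for modulation of myocardial damage; cell death induced by hydrogen peroxide oxidative stress; compound pretreatment for 60 min then peroxide exposure for 2 h; potency is for protecting the cells against peroxide damage rather than for killing them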
[23] = biological target: Induced myeloid leukemia cell differentiation protein Mcl-1 (Homo sapiens, UniProt Q07820); format: functional
[24] = biological target: Genome polyprotein (dengue virus type 2, UniProt P29990); assay: Dengue-2 NS5 methyltransferase inhibitors, primary screen, biochemical, confirmation dose response (AID 588689); format: functional
Genome polyprotein, sequence (P29990 2492-3391 limits assumed): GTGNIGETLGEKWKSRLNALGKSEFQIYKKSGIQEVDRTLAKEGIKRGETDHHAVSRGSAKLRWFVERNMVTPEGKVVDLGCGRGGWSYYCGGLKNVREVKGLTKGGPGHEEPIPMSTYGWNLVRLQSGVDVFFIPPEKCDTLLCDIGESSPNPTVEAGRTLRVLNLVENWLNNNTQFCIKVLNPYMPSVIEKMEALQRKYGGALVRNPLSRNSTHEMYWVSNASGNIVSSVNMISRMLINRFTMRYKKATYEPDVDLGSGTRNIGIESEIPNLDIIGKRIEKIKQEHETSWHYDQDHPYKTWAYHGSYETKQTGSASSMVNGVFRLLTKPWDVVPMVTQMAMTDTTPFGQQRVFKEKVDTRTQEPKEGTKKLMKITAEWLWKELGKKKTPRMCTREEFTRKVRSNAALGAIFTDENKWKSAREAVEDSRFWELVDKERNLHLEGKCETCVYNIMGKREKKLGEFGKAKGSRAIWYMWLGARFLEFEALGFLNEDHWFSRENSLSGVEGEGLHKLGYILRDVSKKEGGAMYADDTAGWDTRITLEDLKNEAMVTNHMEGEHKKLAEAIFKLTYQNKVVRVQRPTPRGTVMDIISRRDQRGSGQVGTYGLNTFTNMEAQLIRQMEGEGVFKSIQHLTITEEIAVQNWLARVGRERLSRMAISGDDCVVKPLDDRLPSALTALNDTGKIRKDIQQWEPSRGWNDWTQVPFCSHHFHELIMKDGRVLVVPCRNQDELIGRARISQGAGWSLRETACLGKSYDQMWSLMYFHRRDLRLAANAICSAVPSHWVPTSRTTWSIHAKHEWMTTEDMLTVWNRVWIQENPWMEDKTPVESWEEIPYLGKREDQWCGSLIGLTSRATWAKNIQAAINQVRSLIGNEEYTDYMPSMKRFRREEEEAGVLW

T2 sequence (Q9UBE0 whole entry): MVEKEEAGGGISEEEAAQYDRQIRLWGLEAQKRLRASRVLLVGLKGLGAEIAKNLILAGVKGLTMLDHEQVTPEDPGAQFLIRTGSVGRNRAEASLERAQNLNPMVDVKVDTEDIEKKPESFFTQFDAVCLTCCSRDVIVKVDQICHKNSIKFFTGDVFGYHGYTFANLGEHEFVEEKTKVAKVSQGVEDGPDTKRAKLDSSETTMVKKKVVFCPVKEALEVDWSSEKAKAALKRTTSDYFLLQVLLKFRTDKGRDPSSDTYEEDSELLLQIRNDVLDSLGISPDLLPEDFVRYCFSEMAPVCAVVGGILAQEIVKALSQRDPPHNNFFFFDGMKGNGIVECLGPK
T2 sequence (Q9UBT2 whole entry): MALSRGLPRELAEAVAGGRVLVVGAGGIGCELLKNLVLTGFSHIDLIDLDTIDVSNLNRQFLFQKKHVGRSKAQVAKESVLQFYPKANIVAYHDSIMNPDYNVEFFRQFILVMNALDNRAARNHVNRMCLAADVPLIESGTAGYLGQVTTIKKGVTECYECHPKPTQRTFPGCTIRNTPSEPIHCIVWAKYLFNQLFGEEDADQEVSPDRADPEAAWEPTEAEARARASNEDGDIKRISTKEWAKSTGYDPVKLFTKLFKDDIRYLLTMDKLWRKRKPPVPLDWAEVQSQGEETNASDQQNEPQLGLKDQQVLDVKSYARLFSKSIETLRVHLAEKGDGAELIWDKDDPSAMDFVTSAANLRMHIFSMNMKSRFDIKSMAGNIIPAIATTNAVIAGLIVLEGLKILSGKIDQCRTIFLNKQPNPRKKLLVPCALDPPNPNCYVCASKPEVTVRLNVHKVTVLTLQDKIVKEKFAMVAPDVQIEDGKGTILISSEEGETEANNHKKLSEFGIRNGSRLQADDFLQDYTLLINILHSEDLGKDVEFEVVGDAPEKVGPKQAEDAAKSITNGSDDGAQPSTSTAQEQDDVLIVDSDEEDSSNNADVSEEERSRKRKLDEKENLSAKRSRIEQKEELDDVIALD
G-protein coupled receptor 55, sequence (Q9Y2T6 whole entry): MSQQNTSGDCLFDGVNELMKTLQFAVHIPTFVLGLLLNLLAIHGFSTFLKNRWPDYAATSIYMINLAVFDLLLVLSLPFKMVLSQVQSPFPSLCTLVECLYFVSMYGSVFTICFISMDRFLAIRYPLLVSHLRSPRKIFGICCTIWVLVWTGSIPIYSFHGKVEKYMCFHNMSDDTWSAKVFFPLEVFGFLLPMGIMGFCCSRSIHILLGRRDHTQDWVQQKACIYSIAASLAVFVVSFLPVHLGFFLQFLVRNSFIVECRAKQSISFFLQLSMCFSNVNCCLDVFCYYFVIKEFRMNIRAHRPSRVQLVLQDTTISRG
Beta-galactosidase, sequence (Q8VNN2 whole entry): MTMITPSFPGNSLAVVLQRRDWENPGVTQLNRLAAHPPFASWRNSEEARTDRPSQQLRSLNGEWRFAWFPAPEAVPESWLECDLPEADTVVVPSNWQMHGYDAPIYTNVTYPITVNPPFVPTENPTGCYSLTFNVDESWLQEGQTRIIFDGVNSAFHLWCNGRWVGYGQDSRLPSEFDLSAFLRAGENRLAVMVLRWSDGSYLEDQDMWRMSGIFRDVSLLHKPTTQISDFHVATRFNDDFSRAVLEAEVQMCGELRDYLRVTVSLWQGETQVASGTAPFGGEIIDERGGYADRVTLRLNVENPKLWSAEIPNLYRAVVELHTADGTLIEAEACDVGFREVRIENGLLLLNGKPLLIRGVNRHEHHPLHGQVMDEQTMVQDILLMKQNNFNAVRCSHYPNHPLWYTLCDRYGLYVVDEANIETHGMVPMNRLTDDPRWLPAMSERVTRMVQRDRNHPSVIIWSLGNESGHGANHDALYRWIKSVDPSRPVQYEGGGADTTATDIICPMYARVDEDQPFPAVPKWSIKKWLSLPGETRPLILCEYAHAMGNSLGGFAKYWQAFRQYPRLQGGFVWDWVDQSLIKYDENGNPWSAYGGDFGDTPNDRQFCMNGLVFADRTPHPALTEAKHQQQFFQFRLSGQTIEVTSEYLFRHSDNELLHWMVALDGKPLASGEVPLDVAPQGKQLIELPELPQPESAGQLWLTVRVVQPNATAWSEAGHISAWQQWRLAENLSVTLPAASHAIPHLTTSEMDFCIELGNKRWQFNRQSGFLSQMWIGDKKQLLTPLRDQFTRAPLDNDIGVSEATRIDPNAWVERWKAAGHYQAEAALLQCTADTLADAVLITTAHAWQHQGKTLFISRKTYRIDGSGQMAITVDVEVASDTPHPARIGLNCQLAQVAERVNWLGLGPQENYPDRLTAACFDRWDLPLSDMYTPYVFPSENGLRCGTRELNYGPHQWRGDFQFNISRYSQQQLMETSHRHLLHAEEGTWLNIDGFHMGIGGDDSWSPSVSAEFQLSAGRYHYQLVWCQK
DNA dC->dU-editing enzyme APOBEC-3G, sequence (Q9HC16 whole entry): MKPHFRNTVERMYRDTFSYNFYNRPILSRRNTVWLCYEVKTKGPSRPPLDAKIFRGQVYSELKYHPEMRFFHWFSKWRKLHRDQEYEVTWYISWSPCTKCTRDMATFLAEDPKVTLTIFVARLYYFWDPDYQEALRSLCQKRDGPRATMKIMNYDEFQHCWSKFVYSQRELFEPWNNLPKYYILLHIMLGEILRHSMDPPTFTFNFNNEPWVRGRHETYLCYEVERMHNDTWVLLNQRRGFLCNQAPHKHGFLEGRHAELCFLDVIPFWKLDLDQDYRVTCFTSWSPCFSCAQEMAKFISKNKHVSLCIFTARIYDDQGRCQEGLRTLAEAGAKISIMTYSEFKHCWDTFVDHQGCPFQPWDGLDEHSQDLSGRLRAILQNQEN
DNA dC->dU-editing enzyme APOBEC-3A, sequence (P31941 whole entry): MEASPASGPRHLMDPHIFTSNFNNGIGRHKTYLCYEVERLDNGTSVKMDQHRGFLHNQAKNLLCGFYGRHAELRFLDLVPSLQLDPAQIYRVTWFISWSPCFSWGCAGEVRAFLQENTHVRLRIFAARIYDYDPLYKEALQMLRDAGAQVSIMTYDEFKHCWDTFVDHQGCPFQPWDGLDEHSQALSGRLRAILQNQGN
Induced myeloid leukemia cell differentiation protein Mcl-1, sequence (Q07820 whole entry): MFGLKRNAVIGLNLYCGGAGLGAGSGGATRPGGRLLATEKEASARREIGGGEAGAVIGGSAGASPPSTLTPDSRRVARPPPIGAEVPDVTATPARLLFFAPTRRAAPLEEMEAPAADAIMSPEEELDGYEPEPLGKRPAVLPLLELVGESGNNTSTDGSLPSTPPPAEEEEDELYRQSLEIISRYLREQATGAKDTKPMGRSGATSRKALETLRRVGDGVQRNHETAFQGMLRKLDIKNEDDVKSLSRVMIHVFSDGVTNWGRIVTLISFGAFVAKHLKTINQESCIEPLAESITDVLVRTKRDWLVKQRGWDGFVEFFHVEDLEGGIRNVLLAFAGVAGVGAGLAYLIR

## CCN(Cc1ccc(C#CCCO)cc1)CC1CCCN(CCc2cccc(F)c2)C1 (stereo not given)
[1]
  EC50: < 100 nM (active)
[2]
  EC50: 8.84 µM (active)
[3]
  EC50: 369 nM (active)

## Sc1nc2cc(Br)c[nH]c-2n1
[4]
  IC50: > 100 µM (inactive)
[5]
  IC50: 2.94 µM (active)

## CCOc1ccc(NC(=O)N(C2CCCCCC2)C2CCN(C(C)=O)CC2)cc1
[6]
  IC50: > 100 µM (active)

## CC(=O)c1cccc(CN2CCCC(CCC(=O)NCc3ccccc3F)C2)c1 (stereo not given)
[1]
  EC50: < 100 nM (active)
[2]
  EC50: > 60 µM (not active)
[3]
  EC50: 40 nM (active)

## O=C(O)Cc1c(O)nc2ccc(Br)cc2c1-c1ccccc1Cl
[7]
  IC50: 23.1 µM (active)

## Cc1ccc(SC[C@H](Cc2ccccc2)N2CC[C@@H](NC(=O)OCc3ccccc3)CCC2=O)cc1
[8]
  EC50: 1.42 µM (active)

## Cc1ccc(S(=O)(=O)n2ccc(OC(=O)c3cccs3)n2)cc1
[9]
  IC50: 3.61 µM (active)
[10]
  IC50: 94.8 µM (active)

## COc1cccc(C(=O)NC(=S)N2CCN(c3ccc(C(F)(F)F)cc3[N+](=O)[O-])CC2)c1
[11]
  EC50: > 150 µM (not active)
[12]
  EC50: > 150 µM (not active)
[13]
  EC50: > 150 µM (not active)
[14]
  IC50: > 66.6 µM (inactive)

## O=C(Nc1nccs1)c1cn(-c2ccccc2)nc1-c1ccccc1
[6]
  IC50: > 100 µM (active)

## Cc1ccc(-c2nn(C)c(=O)c3ccccc23)cc1CNC(=O)c1ccccc1
[7]
  IC50: 7.39 µM (active)

## CC(C)CCn1c(Sc2nc3ccccc3o2)nc2c1c(=O)[nH]c(=O)n2C
[15]
  EC50: > 20 µM (inactive)
[16]
  IC50: 7.89 µM (active)
[17]
  IC50: > 20 µM (inactive)
[18]
  IC50: 5.79 µM (active)
[19]
  AC50: > 380 µM (inconclusive)
[20]
  EC50: 4.76 µM (active)

## Cc1cccc(N2CCN(C(=O)c3ccncc3)CC2)c1C
[21]
  CC50: > 40 µM (active)

## CC(=O)Nc1ccc(S(=O)(=O)Nc2cccc(-c3csc(C)n3)c2)cc1
[7]
  IC50: 58.2 µM (active)

## O=C(CCNS(=O)(=O)c1ccc(Cl)cc1)NCc1cccnc1
[21]
  CC50: > 40 µM (active)

## COc1cccc(Cn2cc(-c3cccc(C(F)(F)F)c3)nn2)c1
[8]
  EC50: 9.1 µM (active)

## C=CCOc1ccc(/C=N/c2ccc(OC)cc2)c(O)c1
[6]
  IC50: > 100 µM (active)
[22]
  IC50: 9.42 µM (active)

## Cc1[nH]n(-c2ncc(-c3ccccc3)s2)c(=O)c1C(c1ccc(Cl)cc1)C(C#N)C#N (stereo not given)
[9]
  IC50: 7.91 µM (active)
[10]
  IC50: 28.8 µM (active)
[23]
  IC50: 8.69 µM (active)
[24]
  IC50: 31.9 µM (active)
